{
  "source": "patent US5789447A",
  "about": "“Nitric oxide releasing compounds as protective agents in ischemia reperfusion injury” (priority 1995, dated 1998)",
  "key": {"microvasculature [1]": {"test_system": "microvasculature", "experiment": "Capillary pressure and vascular resistance in cat small intestine transplant", "type": "in vivo, cats", "conditions": "FIG. 13"}, "mast cells": {"test_system": "mast cells", "experiment": "Degranulation of microvascular mast cells after ischemia reperfusion", "type": "in vivo, rat", "conditions": "20 min ischemia, 30 min reperfusion; 100 μM; FIG. 7", "protocol": "(§1) Male Sprague-Dawley rats weighing 200-250 g apiece were maintained on a purified laboratory diet and fasted for 24 hours prior to each experiment. The animals were initially anesthetized with pentobarbital (65 mg/kg body weight) and then a tracheotomy was performed to facilitate breathing during subsequent experimentation. The right carotid artery was cannulated and system arterial pressure was measured with a Statham P23A pressure transducer (Oxnard, Calif.) connected to the carotid artery cannula. Systemic blood pressure and heart rate were continuously recorder with a Grass physiologic recorded (Grass Instruments).\n(§2) Rats were placed in a supine position on an adjustable plexiglass microscope stage and the mesentery was prepared for microscopic observation as described previously (Asako et al., Gastroenterology, 103, 146-152 (1992); Kurose et al., Circ. Res., in press (1993)). Briefly, the mesentery was draped over a non-fluorescent coverslip that allowed for observation of a 2 cm^2 segment of tissue. The exposed bowel wall was covered with Saran Wrap (Dow Chemical Co.) and the mesentery was superfused with bicarbonate-buffered saline (pH 7.4, 37° C.) that was bubbled with a mixture of 5% CO2 and […].\n(§3) An inverted microscope (TMD-25, Diaphoto, Nikon, Tokyo, Japan) with a 40x objective lens (Fluor, Nikon) was used to observe the mesenteric microcirculation. […] A video camera (VK-C150, Hitachi, Ibaragi, Japan) mounted on the microscope projected the image onto a color monitor (PVM-2030, Sony, Tokyo, Japan) and the images were recorded using a videocassette record (NV8950, Panasonic, Tokyo, Japan). […]\n(§4) Single unbranched venules with diameters ranging between 25 and 35 μm and length greater than 150 μm were selected for study. Venular diameter (DV) was measured either on- or off-line using a video caliper (Microcirculation Research Institute, Texas A&M University, College Station, Tex.). Red blood cell centerline velocity (VRBC) was measured in venules using an optical Dopper velocimeter (Microcirculation Research Institute, Texas A&M University, College Station, Tex.). […] Venular blood flow was calculated from the product of mean red blood cell velocity (Vmean =centerline velocity/1.6; Davis, Microvasc. Res., 34, 223-230 (1987)) and microvascular cross-sectional area, assuming cylindrical geometry. Wall shear rate (γ) was calculated based on the Newtonian definition γ=8(Vmean /D).\nThe number of adherent leukocytes was determined off-line during playback of videotape images. […] Adherent cells were expressed as the number per 100 μm length of venule. The number of emigrated leukocytes was also determined off-line during playback of videotape images. […] Leukocyte emigration was expressed as the number per field of view surrounding the venule. […]"}, "[2]": {"test_system": "platelet-leukocyte aggregates", "experiment": "Platelet-leukocyte aggregates after ischemia reperfusion", "type": "in vivo, rat", "conditions": "20 min ischemia, 30 min reperfusion; 100 μM; FIG. 6", "protocol": "as §1, with “Instruments). […]” for “Instruments).”\nas §3\nSingle unbranched venules with diameters ranging between 25 and 35 μm and length greater than 150 μm were selected for study. Venular diameter (DV) was measured either on- or off-line using a video caliper (Microcirculation Research Institute, Texas A&M University, College Station, Tex.). […] Wall shear rate (γ) was calculated based on the Newtonian definition γ=8(Vmean /D). […]"}, "[3]": {"test_system": "Chinese hamster V79 lung fibroblasts", "experiment": "V79 clonogenic survival, hypoxanthine/xanthine oxidase (HX/XO) cytotoxicity", "conditions": "1 mM", "protocol": "Chinese hamster V79 lung fibroblasts were cultured in F12 medium supplemented with 10% fetal calf serum and antibiotics. Cell survival was assessed by clonogenic assay with 85-95% plating efficiency. Stock cultures of exponentially growing cells were trypsinized, rinsed, and plated (7×10^5 cells/dish) into a number of 100 cm^2 petri dishes and incubated 16 hr at 37° C. prior to experimental protocols.\nIt has been shown that exposure of V79 cells to hydrogen peroxide results in dose-dependent cytotoxicity (Mitchell et al., supra).\nHX and XO were purchased from Boehringer Co. (Indianapolis, Ind.). Nitrite, diethylamine, sulfinamide, diethylenetriaminepentaacetic acid (DETAPAC) and N-(1-naphthyl)ethylenediaminedihydrogenchloride (NEDD) were purchased from Aldrich (Milwaukee, Wis.). Cytosine-β-D-arabinofuranoside and ferricytochrome c were purchased from Sigma (St. Louis, Mo.). DEA/NO and SPER/NO were synthesized as previously described (Maragos et al., (1991), supra).\nExponentially growing cultures of Chinese hamster V79 fibroblasts were exposed to either HX/XO (final concentration of HX was 0.5 mM; 0.08 units/ml XO were used) for various amounts of time (FIG. 1A) or to various concentrations of hydrogen peroxide for one hour (FIG. 1B). […] Additionally, 1 mM DEA/NO was added to medium in the absence of cells, incubated at 37° C. for 1 hr or 16 hrs, and then added just prior to the addition of hydrogen peroxide to evaluate the effects of DEA/NO which had released NO. After treatment, cell monolayers were rinsed twice with phosphate-buffered saline (PBS), trypsinized, counted and plated in triplicate for macroscopic colony formation. Each dose determination was plated in triplicate and experiments were repeated a minimum of two times. Plates were incubated for 7 days, after which colonies were fixed with methanol/acetic acid (3:1), stained with crystal violet, and counted. Colonies containing more than 50 cells were scored."}, "mesenteric venules": {"test_system": "mesenteric venules", "experiment": "Albumin leakage across mesenteric venules after ischemia reperfusion", "type": "in vivo, rat", "conditions": "10 min and 30 min after reperfusion; 100 μM; FIG. 4C", "protocol": "as §1, §2\n(§5) An inverted microscope (TMD-25, Diaphoto, Nikon, Tokyo, Japan) with a 40x objective lens (Fluor, Nikon) was used to observe the mesenteric microcirculation. The mesentery was transilluminated with a 12 V-100 W direct current-stabilized light source. A video camera (VK-C150, Hitachi, Ibaragi, Japan) mounted on the microscope projected the image onto a color monitor (PVM-2030, Sony, Tokyo, Japan) and the images were recorded using a videocassette record (NV8950, Panasonic, Tokyo, Japan). A video time-date generator (WJ810, Panasonic) projected the time, date and stopwatch function onto the monitor.\nas §4\nAfter all parameters measured on-line were in a steady state, images from the mesenteric preparation were recorded on videotape for 10 min. […]"}, "[4]": {"experiment": "NO release rate / half-life", "type": "physicochemical", "conditions": "vs DEA/NO"}, "rat mesenteric venules": {"test_system": "rat mesenteric venules", "experiment": "Venular diameter, RBC velocity and wall shear rate after ischemia reperfusion", "type": "in vivo", "conditions": "100 μM in superfusate", "protocol": "as §1, §2, §5\n(§6) Single unbranched venules with diameters ranging between 25 and 35 μm and length greater than 150 μm were selected for study. Venular diameter (DV) was measured either on- or off-line using a video caliper (Microcirculation Research Institute, Texas A&M University, College Station, Tex.). Red blood cell centerline velocity (VRBC) was measured in venules using an optical Dopper velocimeter (Microcirculation Research Institute, Texas A&M University, College Station, Tex.). The velocimeter was calibrated against a rotating glass disk coated with red blood cells. Venular blood flow was calculated from the product of mean red blood cell velocity (Vmean =centerline velocity/1.6; Davis, Microvasc. Res., 34, 223-230 (1987)) and microvascular cross-sectional area, assuming cylindrical geometry. Wall shear rate (γ) was calculated based on the Newtonian definition γ=8(Vmean /D).\nAfter all parameters measured on-line were in a steady state, images from the mesenteric preparation were recorded on videotape for 10 min. […] The mesentery was made ischemic for zero (sham ischemia) or 20 min. After the ischemic period, the ligation was gently removed. In some experiments, either sodium nitroprusside (SNP, 100 μM, Sigma Chemical), spermine-NO (SpNO, 100 μM), SIN-1 (100 μM), spermine (SP, 100 μM, Sigma Chemical), or NG-nitro-L-arginine methyl ester (L-NAME, 100 μM, Sigma Chemical) was added to the superfusate and the same protocol was employed. Spermine-NO and SIN-1, which are NO donors, were obtained from the National Institutes of Health, Bethesda, Md. […]"}, "microvasculature [5]": {"test_system": "microvasculature", "experiment": "Lymph flow and lymph protein clearance in cat small intestine transplant", "type": "in vivo, cats"}, "intestinal mucosa": {"test_system": "intestinal mucosa", "experiment": "Intestinal blood to lumen 51Cr-EDTA clearance (mucosal permeability) in cat small intestine transplant", "type": "in vivo, cats"}, "leukocytes": {"test_system": "leukocytes", "experiment": "Leukocyte adherence and emigration after ischemia reperfusion (mesenteric venules)", "type": "in vivo, rat", "conditions": "20 min ischemia, 10 and 30 min reperfusion; 100 μM; FIG. 4B", "protocol": "as §1, §2, §5, §6\nThe number of adherent leukocytes was determined off-line during playback of videotape images. A leukocyte was considered to be adherent to venular endothelium if it remained stationary for a period equal to or greater than 30 seconds (Granger et al., Am. J. Physiol., 257, G683-G688 (1989)). Adherent cells were expressed as the number per 100 μm length of venule. The number of emigrated leukocytes was also determined off-line during playback of videotape images. Any interstitial leukocytes present in the mesentery at the onset of the experiment were subtracted from the total number of leukocytes that accumulated during the course of the experiment. Leukocyte emigration was expressed as the number per field of view surrounding the venule. Platelet-leukocyte aggregates, which were visible within postcapillary venules, were quantitated and expressed as the number of aggregates crossing a fixed point within the venule over a 5 min period. Mast cells in the microvascular beds of the rat mesenteries were visualized by using 0.1% toluidine blue. The number of normal and degranulated mast cells was determined and the percentage of degranulated mast cells was calculated."}, "small intestine": {"test_system": "small intestine", "experiment": "Water absorption in cat small intestine transplant", "type": "in vivo, cats", "conditions": "during 120 min of reperfusion; 0.1 mmol; vs untreated; FIG. 10"}},
  "data": [
    {"smiles": "NCCCNCCCCN(CCCN)/[N+]([O-])=N/O", "note": "[SpNO, spermine-NO]", "values": [
      {"measurement": "capillary pressure", "setting": "microvasculature [1]", "result": "Significant elevation"},
      {"measurement": "degranulation of microvascular mast cells", "setting": "mast cells", "result": "significantly inhibited"},
      {"measurement": "platelet-leukocyte aggregate formation", "setting": "[2]", "result": "reduced"},
      {"measurement": "protection against HX/XO-induced cell killing", "setting": "[3]", "result": "protected V79 cells against HX/XO induced cytotoxicity but to a lesser extent than DEA/NO"},
      {"measurement": "attenuation of albumin leakage", "setting": "mesenteric venules", "result": 70, "unit": "%"},
      {"measurement": "NO release, times slower than DEA/NO", "setting": "[4]", "result": 40, "unit": "times"},
      {"measurement": "reversal of decrease in RBC velocity after reperfusion", "setting": "rat mesenteric venules; in words", "result": "reversed the decreases"},
      {"measurement": "reversal of decrease in wall shear rate after reperfusion", "setting": "rat mesenteric venules; in words", "result": "reversed the decreases"},
      {"measurement": "RBC velocity", "setting": "rat mesenteric venules; 30 min after reperfusion", "result": "3.06 ± 0.28", "unit": "mm/sec"},
      {"measurement": "Venular diameter", "setting": "rat mesenteric venules; 30 min after reperfusion", "result": "31.8 ± 2.1", "unit": "μm"},
      {"measurement": "Wall Shear Rate", "setting": "rat mesenteric venules; 30 min after reperfusion", "result": "480 ± 27", "unit": "s⁻¹"},
      {"measurement": "lymph flow", "setting": "microvasculature [5]; FIG. 11", "result": "Increased lymph flow"},
      {"measurement": "lymph protein clearance", "setting": "microvasculature [5]; FIG. 12", "result": "increased lymph protein clearance"},
      {"measurement": "mucosal permeability (51Cr-EDTA clearance)", "setting": "intestinal mucosa; 6-hr hypothermic ischemia, 120 min reperfusion, FIG. 9", "result": "decreased"},
      {"measurement": "51Cr-EDTA clearance", "setting": "intestinal mucosa; at 75 and 90 min, 0.1 mmol luminal perfusate", "result": "statistically significant decrease"},
      {"measurement": "reduction of number of emigrated leukocytes", "setting": "leukocytes", "result": "64-71%"},
      {"measurement": "water absorption", "setting": "small intestine", "result": "increased significantly"}
    ]}
  ]
}
